We go through eleven molecules from patent publication US20070082876A1, “Novel C18 modified retrosteroids as progesterone receptor modulator compounds” (Solvay Pharmaceuticals GmbH, priority 2005, published 2007).

Assay [1] deals with T1, bovine progesterone receptor (Bos taurus, UniProt F1N712).
T1 construct: uterus tissue as the source of progesterone receptor; tissue CEREP Progesterone receptor-814; host or cells: bovine uterus tissue (the cited method, Hurd & Moudgil 1988, used calf uterus)
T1 sequence (F1N712 1-914): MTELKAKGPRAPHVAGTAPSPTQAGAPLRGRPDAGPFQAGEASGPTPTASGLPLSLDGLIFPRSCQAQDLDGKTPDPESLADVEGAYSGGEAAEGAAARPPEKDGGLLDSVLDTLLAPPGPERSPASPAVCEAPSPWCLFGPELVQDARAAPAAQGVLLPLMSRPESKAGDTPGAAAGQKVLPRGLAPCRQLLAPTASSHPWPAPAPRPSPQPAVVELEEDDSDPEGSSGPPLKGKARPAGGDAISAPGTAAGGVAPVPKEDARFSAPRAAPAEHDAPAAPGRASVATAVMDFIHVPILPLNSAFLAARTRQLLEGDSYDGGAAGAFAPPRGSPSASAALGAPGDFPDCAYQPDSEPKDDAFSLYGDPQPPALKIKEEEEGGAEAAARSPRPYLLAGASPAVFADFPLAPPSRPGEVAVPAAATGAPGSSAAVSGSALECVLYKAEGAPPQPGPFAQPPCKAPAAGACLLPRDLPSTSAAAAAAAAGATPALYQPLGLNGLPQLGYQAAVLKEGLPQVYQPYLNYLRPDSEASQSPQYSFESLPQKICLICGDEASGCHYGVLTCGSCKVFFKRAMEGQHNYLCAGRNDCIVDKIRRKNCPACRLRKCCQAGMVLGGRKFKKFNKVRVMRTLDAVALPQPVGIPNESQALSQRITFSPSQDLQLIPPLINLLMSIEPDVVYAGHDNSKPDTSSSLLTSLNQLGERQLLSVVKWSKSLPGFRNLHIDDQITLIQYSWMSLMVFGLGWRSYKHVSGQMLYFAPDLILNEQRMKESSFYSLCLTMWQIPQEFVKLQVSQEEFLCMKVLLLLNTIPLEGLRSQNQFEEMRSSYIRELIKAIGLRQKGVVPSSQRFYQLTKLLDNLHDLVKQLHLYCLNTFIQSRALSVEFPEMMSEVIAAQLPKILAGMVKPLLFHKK
Description: Progesterone receptor binding assay (CEREP, 3H-R5020 ligand, uterus tissue). The note with it: bovine PR; 3H-R5020 as ligand, uterus tissue as receptor source; read-out: Progesterone Receptor binding (pKi) (converted). As to the method:
The progesterone receptor (PR) binding assays were performed at CEREP (Celle I'Evescault, France). The binding to the bovine progesterone receptor (Assay Cat No: Progesterone receptor-814) was measured using 3H-R5020 as ligand and uterus tissue as the source of progesterone receptor. The assay was performed as described by Hurd & Moudgil [1988]. […] The results of the receptor binding assay are presented as the individual pKi values for the bovine PR which were determined by measuring the binding activity for a concentration range of each compound.

For assay [2], the system named is progesterone receptor (alkaline phosphatase expression in T47D human breast carcinoma cells). The assay can be described thus: Progesterone-dependent alkaline phosphatase expression assay (AP assay), agonistic and antagonistic mode. The assay is classed as cell-based. The conditions noted are these: for inhibition at 0.1 µM: 100 nM compound, inhibition of alkaline phosphatase induction by 1 nM Dydrogesterone, read-out: PI [100 nM] (% inhibition); for activation at 0.1 µM: 48 h, 100 nM compound alone, alkaline phosphatase induction, 100% = 1 nM Dydrogesterone, read-out: PS [100 nM] (% stimulation); for IC50: antagonistic potency against 1 nM Dydrogesterone; for EC50: agonistic potency. How it is done: The progesterone-dependent modulation of alkaline phosphatase expression was examined using T47D human breast carcinoma cells [Keydar et al., 1979]. The assay was performed as previously described by Di Lorenzo et al. (1991) with the modification of using Dydrogesterone as comparative progestin to determine the antagonistic and agonistic activity.
The cell line was purchased from CLS Cell Lines Service (Hildastrasse 21, D-69214 Eppelheim, Germany).
In brief, the cells were plated in 96-well plates at 40,000 cells/well using the following growth medium: RPMI 1640 with: 10% FBS, 1 mM Sodium Pyruvat MEM, 10 mM Hepes, 0.01 mg/ml Bovine insulin, and 25 μg/ml Gentamycin. After 24 h of cultivation, the growth medium was replaced with medium containing 2% fetal bovine serum and the test compounds were added to each well to achieve the appropriate compound concentration: For determination of agonistic activity only the test compounds were added; for measurement of antagonistic activity the test compounds and additionally Dydrogesterone as standard progesterone agonist was added to a final concentration of 1 nM. After 48 h of cultivation, the medium was removed and the cells were washed with 200 μl of Dulbecco's phosphate-buffered saline without calcium and magnesium (PBS(−)).
Then the cells were fixed with 3.7% formaldehyde in phosphate-buffered saline for 15 min at 22° C. After washing the cells with PBS, 100 μl of a […] (pNPP) solution (pNPP Liquid Substrate System; Sigma) was added to each well and incubated for 2 h at room temperature protected from light. The reaction was stopped with 100 μl 1N NaOH and the absorbance was measured with a spectrophotometer (Victor, Perkin Elmer) at 405 nm.
The results are expressed as alkaline phosphatase induction (as 100% with 1 nM Dydrogesterone) or inhibition (against alkaline phosphatase induction by 1 nM Dydrogesterone) at a certain concentration of test compound.
Calculations: % stimulation=(effect compound−basal)/(effect dydro 1 nM−basal)*100 % inhibition of 1 nM Dydro=100*{1−[(effect compound·basal)/(effect dydro 1 nM·basal)]}
For each compound the % inhibition (PI) and % stimulation (PS), respectively, at a compound concentration of 100 nM was determined. For selected compounds, the corresponding values were measured for several different concentrations, and subsequently were plotted against the concentration of the test compound, and used to calculate the IC50 value (for the antagonistic potency; the IC50 value is the concentration (nM), required to reduce the maximal response by 50%) and EC50 values (for the agonistic potency; the EC50 value is the effective concentration (nM) that produced 50% of the maximum response), respectively.

For the next assay, the system named is cycling guinea pigs. Description: Guinea pig model (luteolysis and uterine PR expression in cycling guinea pigs). The note with it: 10mg/kg s.c. once daily on days 10-17 of the cycle; FIG. 1. Format: in vivo. An excerpt:
An assay how to assess the progesterone antagonists (PAs) and progesterone receptor modulators (PRMs) with respect to PR agonistic and antagonistic activities in vivo is described by Elger et al [2000] and within WO 04/014935 using cycling guinea pigs. In this assay, pure PR antagonists inhibit luteolysis at the end of the ovarian cycle, whereas PR agonist and SPRMs support luteolysis, i.e. this is a very sensitive in vivo method to reveal residual agonistic activity of SPRMs. Inhibition of luteolysis is reflected by elevated serum progesterone levels at day 10-17 and inhibition of uterine prostaglandin F2α, as well as by certain histological characteristics in uterus and ovary, such as increased expression of progesterone receptors and decreased glandular differentiation in the uterus, as well as persistence of large intact corpora lutea up to day 18.
Adult female guinea pigs (strain Dunkin Hartley, Crl:HA; body weight 500-700 g) are purchased from Charles River (Sulzfeld, Germany). Blood samples are drawn from the Vena saphena three times a week to monitor ovarian cycles by determination of progesterone levels. […]
Antiluteolytic activity is evaluated by assessment of serum progesterone profiles throughout the treatment period from day 10 to day 17 (FIG. 1).
Antiprogestational effects on the uterus are assessed by determination of the degree of PR expression. […]

Regarding `CC(=O)[C@H]1CC[C@H]2[C@@H]3CCC4=CC(=O)CC[C@@]4(C)[C@@H]3CC[C@]12CCCc1ccc(/C=N/O)cc1` [No. 1], in assay [1], the Ki was 1000 nM. Also, in assay [2], the inhibition at 0.1 µM came to 60%, the activation at 0.1 µM was 1% and the IC50 is 31.6 nM.

As to `CC(=O)[C@H]1CC[C@H]2[C@@H]3C=CC4=CC(=O)CC[C@@]4(C)[C@@H]3CC[C@]12CCCc1ccc(/C=N/O)cc1` [No. 2], in assay [1], the Ki is 200 nM. Besides, in assay [2], the inhibition at 0.1 µM was 77%, the activation at 0.1 µM worked out at 10% and the IC50 was 20 nM.

As for `CCNC(=O)O/N=C/c1ccc(CCC[C@]23CC[C@@H]4[C@@H](CCC5=CC(=O)CC[C@]54C)[C@@H]2CC[C@@H]3C(C)=O)cc1` [No. 4], the Ki in assay [1] is 501 nM. In addition, in assay [2], the inhibition at 0.1 µM amounted to 51%, the activation at 0.1 µM amounted to 4% and the IC50 is 50.1 nM.

Regarding `CCNC(=O)O/N=C/c1ccc(CCC[C@]23CC[C@@H]4[C@@H](C=CC5=CC(=O)CC[C@]54C)[C@@H]2CC[C@@H]3C(C)=O)cc1` [No. 5], in assay [1], the Ki was 200 nM. Also, in assay [2], the inhibition at 0.1 µM is 52%, the activation at 0.1 µM came out at 35% and the IC50 is 5.01 nM.

`CCNC(=O)O/N=C/c1ccc(CCC[C@]23CC[C@@H]4[C@@H](C=CC5=CC(=O)CC[C@]54C)[C@@H]2CC[C@]3(OC(=O)OCC)C(C)=O)cc1` [No. 6]: the Ki in assay [1] was 501 nM. In assay [2], the inhibition at 0.1 µM came out at 32%, the activation at 0.1 µM was 60% and the EC50 is 50.1 nM.

For the molecule `CC(=O)[C@H]1CC[C@H]2[C@@H]3C=CC4=CC(=O)CC[C@@]4(C)[C@@H]3CC[C@]12CCCc1ccc(C(N)=O)cc1` [No. 13], in assay [1], the Ki was 200 nM. In assay [2], the inhibition at 0.1 µM came out at 79%, the activation at 0.1 µM was found to be 7% and the IC50 is 50.1 nM.

Regarding `CC(=O)[C@H]1CC[C@H]2[C@@H]3C=CC4=CC(=O)CC[C@@]4(C)[C@@H]3CC[C@]12CCCc1ccccc1` [compound 17], in assay [2], the inhibition at 0.1 µM was determined as 79%, the activation at 0.1 µM was 8% and the EC50 is 25.1 nM.

Take `COc1cccc(CCC[C@]23CC[C@@H]4[C@@H](C=CC5=CC(=O)CC[C@]54C)[C@@H]2CC[C@@H]3C(C)=O)c1` [compound 25]: in assay [2], the inhibition at 0.1 µM was 73%; the activation at 0.1 µM is 12%; the midpoint of the response, the EC50, lay at 15.8 nM.

On to `COc1cc(CCC[C@]23CC[C@@H]4[C@@H](C=CC5=CC(=O)CC[C@]54C)[C@@H]2CC[C@@H]3C(C)=O)cc(OC)c1` [compound 29], for which, in assay [2], the inhibition at 0.1 µM was 69%, the activation at 0.1 µM was found to be 15% and the EC50 is 15.8 nM.

In the case of `CC(=O)[C@H]1CC[C@H]2[C@@H]3C=CC4=CC(=O)CC[C@@]4(C)[C@@H]3CC[C@]12C` [dydrogesterone, (9β,10α)-Pregna-4,6-diene-3,20-dione], the “antiluteolytic activity (serum progesterone levels day 10 to day 17)” value in the assay with cycling guinea pigs is “progesterone levels decrease”.

Turning to `CC#C[C@]1(O)CC[C@H]2[C@@H]3CCC4=CC(=O)CCC4=C3[C@@H](c3ccc(N(C)C)cc3)C[C@@]21C` [mifepristone], in the assay with cycling guinea pigs, the “antiluteolytic activity (serum progesterone levels day 10 to day 17)” value is “do not decline”.
